From patent US20250230193A1, “CYCLIC COMPOUND HAVING SELECTIVE KRAS INHIBITORY EFFECT ON HRAS AND NRAS” (CHUGAI SEIYAKU KABUSHIKI KAISHA, priority 2022, published 2025)

Columns and labels:
[1] = biological target: GDP-bound NRAS wild-type protein (Homo sapiens, UniProt P01111); test: Binding to NRAS by surface plasmon resonance (SPR), Single Cycle Kinetics; conditions: KD ratio NRAS/KRAS, SPR, GDP-bound wild-type proteins
[2] = biological target: GDP-bound HRAS wild-type protein (Homo sapiens, UniProt P01112); test: Binding to HRAS by surface plasmon resonance (SPR), Single Cycle Kinetics; conditions: KD ratio HRAS/KRAS, SPR, GDP-bound wild-type proteins
Sequence of GDP-bound HRAS wild-type protein (P01112 whole entry): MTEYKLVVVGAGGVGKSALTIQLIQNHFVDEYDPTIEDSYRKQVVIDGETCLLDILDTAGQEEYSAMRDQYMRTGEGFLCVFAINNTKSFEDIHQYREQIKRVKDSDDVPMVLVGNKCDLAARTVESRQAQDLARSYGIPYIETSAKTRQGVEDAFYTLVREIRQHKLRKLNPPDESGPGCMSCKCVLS

Sequence of GDP-bound NRAS wild-type protein (P01111 whole entry): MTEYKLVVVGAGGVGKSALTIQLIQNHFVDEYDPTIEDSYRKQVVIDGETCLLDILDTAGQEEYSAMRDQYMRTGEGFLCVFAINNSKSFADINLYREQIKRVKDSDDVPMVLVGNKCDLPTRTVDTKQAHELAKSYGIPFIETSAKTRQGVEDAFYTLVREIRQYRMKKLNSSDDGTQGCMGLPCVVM

| Structure (SMILES) | NRAS/KRAS (ratio of KD value with respect to GDP-bound NRAS wild-type protein to KD value with respect to KRAS) [1] | HRAS/KRAS (ratio of KD value with respect to GDP-bound HRAS wild-type protein to KD value with respect to KRAS) [2] |
| --- | --- | --- |
| CCO[C@@H]1C[C@H]2C(=O)NC3(CCC3)C(=O)N(C)[C@@H](C(CC)CC)C(=O)N(C)[C@H](C(=O)N3CCCCC3)CC(=O)N(C)[C@H]3CCC/C=C/c4ccc(cc4)C[C@@H](C(=O)N(C)CC(=O)N[C@@H](CCc4ccc(Cl)c(Cl)c4)C(=O)N2C1)N1CC/C=C\C[C@@H](C1=O)N(C)C(=O)CN(C1CC1)C(=O)[C@H]([C@@H](C)CC)NC3=O [PP3039] | AA (a compound having 20 or more is denoted as AA) | A (a compound having 10 or more and less than 20 is denoted as A) |
| CCO[C@@H]1C[C@H]2C(=O)NC3(CCC3)C(=O)N(C)[C@@H](C(CC)CC)C(=O)N(C)[C@H](C(=O)N3CCCC3)CC(=O)N(C)[C@H]3CCC/C=C/c4ccc(cc4)C[C@@H](C(=O)N(C)CC(=O)N[C@@H](CCc4ccc(Cl)c(Cl)c4)C(=O)N2C1)N1CC/C=C\C[C@@H](C1=O)N(C)C(=O)CN(C1CC1)C(=O)[C@H]([C@@H](C)CC)NC3=O [PP3040] | AA (a compound having 20 or more is denoted as AA) | A (a compound having 10 or more and less than 20 is denoted as A) |
| CCO[C@@H]1C[C@H]2C(=O)NC3(CC(C)(C)C3)C(=O)N(C)[C@@H](C(CC)CC)C(=O)N(C)[C@H](C(=O)N(C)C)CC(=O)N(C)[C@H]3CCCC/C=C/c4ccc(cc4)C[C@@H](C(=O)N(C)CC(=O)N[C@@H](CCc4cc(F)c(C(F)(F)F)c(F)c4)C(=O)N2C1)N1CC/C=C\C[C@@H](C1=O)N(C)C(=O)CN(C)C(=O)[C@H]([C@@H](C)CC)NC3=O [PP3044] | AA (a compound having 20 or more is denoted as AA) | A (a compound having 10 or more and less than 20 is denoted as A) |
| CCO[C@@H]1C[C@H]2C(=O)NC3(CC(C)(C)C3)C(=O)N(C)[C@@H](C(CC)CC)C(=O)N(C)[C@H](C(=O)N(C)C)CC(=O)N(C)[C@H]3CCCC/C=C/c4ccc(cc4)C[C@@H](C(=O)N(C)CC(=O)N[C@@H](CCc4ccc(Cl)c(Cl)c4)C(=O)N2C1)N1CC/C=C\C[C@@H](C1=O)N(C)C(=O)CN(C)C(=O)[C@H]([C@@H](C)CC)NC3=O [PP3045] | AA (a compound having 20 or more is denoted as AA) | A (a compound having 10 or more and less than 20 is denoted as A) |
| CCO[C@@H]1C[C@H]2C(=O)NC3(CCC3)C(=O)N(C)[C@@H](C(CC)CC)C(=O)N(C)[C@H](C(=O)N3CCCCC3)CC(=O)N(C)[C@H]3CCCC/C=C/c4ccc(cc4)C[C@@H](C(=O)N(C)CC(=O)N[C@@H](CCc4ccc(Cl)c(Cl)c4)C(=O)N2C1)N1CC/C=C\C[C@@H](C1=O)N(C)C(=O)CN(C)C(=O)[C@H]([C@@H](C)CC)NC3=O [PP3046] | AA (a compound having 20 or more is denoted as AA) | A (a compound having 10 or more and less than 20 is denoted as A) |
| CCO[C@@H]1C[C@H]2C(=O)NC3(CCC3)C(=O)N(C)[C@@H](C(CC)CC)C(=O)N(C)[C@H](C(=O)N3CCCC3)CC(=O)N(C)[C@H]3CCCC/C=C/c4ccc(cc4)C[C@@H](C(=O)N(C)CC(=O)N[C@@H](CCc4ccc(Cl)c(Cl)c4)C(=O)N2C1)N1CC/C=C\C[C@@H](C1=O)N(C)C(=O)CN(C)C(=O)[C@H]([C@@H](C)CC)NC3=O [PP3047, (1S,7S,11R,13S,19S,22S,26S,29S,35S,37Z,47E)-7-[2-(3,4-dichlorophenyl)ethyl]-11-ethoxy-19-(1-ethylpropyl)-3,18,21,25,31,34-hexamethyl-29-[(1S)-1-methylpropyl]-22-(pyrrolidine-1-carbonyl)spiro[3,6,9,15,18,21,25,28,31,34,41-undecazapentacyclo[24.15.11.2^43,46.1^35,41.0^9,13]pentapentaconta-37,43(54),44,46(53),47-pentaene-16,1′-cyclobutane]-2,5,8,14,17,20,24,27,30,33,55-undecone] | AA (a compound having 20 or more is denoted as AA) | A (a compound having 10 or more and less than 20 is denoted as A) |
| CCO[C@@H]1C[C@H]2C(=O)NC3(CC(C)(C)C3)C(=O)N(C)[C@@H](C(CC)CC)C(=O)N(C)[C@H](C(=O)N(C)C)CC(=O)N(C)[C@H]3CCCCC/C=C/c4ccc(cc4)C[C@@H](C(=O)N(C)CC(=O)N[C@@H](CCc4cc(F)c(C(F)(F)F)c(F)c4)C(=O)N2C1)N1CC/C=C\C[C@@H](C1=O)N(C)C(=O)CN(C)C(=O)[C@H]([C@@H](C)CC)NC3=O [PP3048] | A (a compound having 10 or more and less than 20 is denoted as A) | A (a compound having 10 or more and less than 20 is denoted as A) |
| CCO[C@@H]1C[C@H]2C(=O)NC3(CCC3)C(=O)N(C)[C@@H](C3CCCC3)C(=O)N(C)[C@H](C(=O)N3CCCC3)CC(=O)N(C)[C@H]3CCCCC/C=C/c4ccc(cc4)C[C@@H](C(=O)N(C)CC(=O)N[C@@H](CCc4ccc(Cl)c(Cl)c4)C(=O)N2C1)N1CC/C=C\C[C@@H](C1=O)N(C)C(=O)CN(C)C(=O)[C@H]([C@@H](C)CC)NC3=O [PP3049] | AA (a compound having 20 or more is denoted as AA) | A (a compound having 10 or more and less than 20 is denoted as A) |
| CCO[C@@H]1C[C@H]2C(=O)NC3(CC(C)(C)C3)C(=O)N(C)[C@@H](C(CC)CC)C(=O)N(C)[C@H](C(=O)N(C)C)CC(=O)N(C)[C@H]3CCCCC/C=C/c4ccc(cc4)C[C@@H](C(=O)N(C)CC(=O)N[C@@H](CCc4ccc(Cl)c(Cl)c4)C(=O)N2C1)N1CC/C=C\C[C@@H](C1=O)N(C)C(=O)CN(C)C(=O)[C@H]([C@@H](C)CC)NC3=O [PP3050] | AA (a compound having 20 or more is denoted as AA) | A (a compound having 10 or more and less than 20 is denoted as A) |
| CCO[C@@H]1C[C@H]2C(=O)NC3(CCC3)C(=O)N(C)[C@@H](C(CC)CC)C(=O)N(C)[C@H](C(=O)N3CCCCC3)CC(=O)N(C)[C@H]3CCCCC/C=C/c4ccc(cc4)C[C@@H](C(=O)N(C)CC(=O)N[C@@H](CCc4ccc(Cl)c(Cl)c4)C(=O)N2C1)N1CC/C=C\C[C@@H](C1=O)N(C)C(=O)CN(C)C(=O)[C@H]([C@@H](C)CC)NC3=O [PP3051] | AA (a compound having 20 or more is denoted as AA) | A (a compound having 10 or more and less than 20 is denoted as A) |
| CCO[C@@H]1C[C@H]2C(=O)NC3(CCC3)C(=O)N(C)[C@@H](C(CC)CC)C(=O)N(C)[C@H](C(=O)N3CCCC3)CC(=O)N(C)[C@H]3CCCCC/C=C/c4ccc(cc4)C[C@@H](C(=O)N(C)CC(=O)N[C@@H](CCc4ccc(Cl)c(Cl)c4)C(=O)N2C1)N1CC/C=C\C[C@@H](C1=O)N(C)C(=O)CN(C)C(=O)[C@H]([C@@H](C)CC)NC3=O [PP3052] | AA (a compound having 20 or more is denoted as AA) | A (a compound having 10 or more and less than 20 is denoted as A) |
